# Source: publication PMC10824666 (Nature Cancer, 2023)
# Read-outs that look alike come from different tables or passages of the source.
# Key:
# Assay in all cases: biochemical
# Set-up in all cases: Eurofins DiscoverX kinase panel, competitive binding assay at 1 uM, percent of DMSO control
# Conditions in all cases: competitive binding, percent of DMSO control
# OXSR1 = OXSR1 (Homo sapiens, UniProt O95747)
# Procedure, shortened: (§1)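 Single-point profiling at 1 µM compound in a competition-binding format against 96 kinases, read out as POC relative to control; n = 1.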
# MAP4K4 = MAP4K4 (Homo sapiens, UniProt O95819)
# Sequence of MAP4K4 (O95819 whole entry): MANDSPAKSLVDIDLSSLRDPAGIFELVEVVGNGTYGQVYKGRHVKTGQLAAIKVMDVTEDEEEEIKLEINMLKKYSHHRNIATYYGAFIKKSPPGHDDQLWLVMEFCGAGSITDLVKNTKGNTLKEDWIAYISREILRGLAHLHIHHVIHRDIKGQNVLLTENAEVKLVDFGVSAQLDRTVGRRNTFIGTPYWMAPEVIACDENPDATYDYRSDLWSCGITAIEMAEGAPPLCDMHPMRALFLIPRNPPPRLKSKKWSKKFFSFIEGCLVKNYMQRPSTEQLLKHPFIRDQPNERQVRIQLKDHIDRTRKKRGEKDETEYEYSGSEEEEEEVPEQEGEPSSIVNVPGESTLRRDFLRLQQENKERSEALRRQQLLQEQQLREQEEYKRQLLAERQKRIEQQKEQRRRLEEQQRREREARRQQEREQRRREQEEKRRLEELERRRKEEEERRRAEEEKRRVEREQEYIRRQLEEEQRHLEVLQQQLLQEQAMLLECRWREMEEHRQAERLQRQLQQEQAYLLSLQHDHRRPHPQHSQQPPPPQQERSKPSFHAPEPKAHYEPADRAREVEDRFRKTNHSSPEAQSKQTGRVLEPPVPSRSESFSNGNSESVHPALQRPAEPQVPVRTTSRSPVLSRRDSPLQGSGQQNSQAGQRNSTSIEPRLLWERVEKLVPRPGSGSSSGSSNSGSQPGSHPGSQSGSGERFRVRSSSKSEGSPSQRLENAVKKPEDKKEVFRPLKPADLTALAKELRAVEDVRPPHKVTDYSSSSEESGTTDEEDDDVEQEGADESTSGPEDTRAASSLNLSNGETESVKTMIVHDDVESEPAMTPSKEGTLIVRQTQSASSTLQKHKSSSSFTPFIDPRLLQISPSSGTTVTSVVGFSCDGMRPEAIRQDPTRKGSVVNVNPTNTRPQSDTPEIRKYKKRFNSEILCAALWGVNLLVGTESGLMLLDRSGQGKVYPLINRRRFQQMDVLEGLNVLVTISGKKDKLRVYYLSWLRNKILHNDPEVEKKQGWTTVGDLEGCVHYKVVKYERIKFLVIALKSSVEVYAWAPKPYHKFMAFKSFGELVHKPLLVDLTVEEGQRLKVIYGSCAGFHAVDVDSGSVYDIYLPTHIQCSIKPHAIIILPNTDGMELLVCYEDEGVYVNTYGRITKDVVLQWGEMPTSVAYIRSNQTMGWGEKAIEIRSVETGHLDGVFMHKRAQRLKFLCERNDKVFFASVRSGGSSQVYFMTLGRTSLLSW
# Procedure, shortened: as §1
# Aurora 2 = target: T1, Aurora 2 (Homo sapiens, UniProt O14965)
# T1 construct: gene AURKA
# T1 sequence (O14965 1-403): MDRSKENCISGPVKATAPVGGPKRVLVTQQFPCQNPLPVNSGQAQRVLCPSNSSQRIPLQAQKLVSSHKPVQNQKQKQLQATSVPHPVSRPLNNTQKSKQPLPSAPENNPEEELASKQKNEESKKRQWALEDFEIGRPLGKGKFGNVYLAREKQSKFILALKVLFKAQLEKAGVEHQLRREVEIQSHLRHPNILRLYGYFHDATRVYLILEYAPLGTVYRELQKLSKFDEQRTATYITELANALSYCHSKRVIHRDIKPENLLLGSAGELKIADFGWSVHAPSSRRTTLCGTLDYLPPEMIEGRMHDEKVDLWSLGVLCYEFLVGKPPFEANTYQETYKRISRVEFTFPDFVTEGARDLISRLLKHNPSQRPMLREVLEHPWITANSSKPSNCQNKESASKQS
# Procedure, shortened: as §1
# KDR = KDR (Homo sapiens, UniProt P35968)
# Sequence of KDR (P35968 whole entry): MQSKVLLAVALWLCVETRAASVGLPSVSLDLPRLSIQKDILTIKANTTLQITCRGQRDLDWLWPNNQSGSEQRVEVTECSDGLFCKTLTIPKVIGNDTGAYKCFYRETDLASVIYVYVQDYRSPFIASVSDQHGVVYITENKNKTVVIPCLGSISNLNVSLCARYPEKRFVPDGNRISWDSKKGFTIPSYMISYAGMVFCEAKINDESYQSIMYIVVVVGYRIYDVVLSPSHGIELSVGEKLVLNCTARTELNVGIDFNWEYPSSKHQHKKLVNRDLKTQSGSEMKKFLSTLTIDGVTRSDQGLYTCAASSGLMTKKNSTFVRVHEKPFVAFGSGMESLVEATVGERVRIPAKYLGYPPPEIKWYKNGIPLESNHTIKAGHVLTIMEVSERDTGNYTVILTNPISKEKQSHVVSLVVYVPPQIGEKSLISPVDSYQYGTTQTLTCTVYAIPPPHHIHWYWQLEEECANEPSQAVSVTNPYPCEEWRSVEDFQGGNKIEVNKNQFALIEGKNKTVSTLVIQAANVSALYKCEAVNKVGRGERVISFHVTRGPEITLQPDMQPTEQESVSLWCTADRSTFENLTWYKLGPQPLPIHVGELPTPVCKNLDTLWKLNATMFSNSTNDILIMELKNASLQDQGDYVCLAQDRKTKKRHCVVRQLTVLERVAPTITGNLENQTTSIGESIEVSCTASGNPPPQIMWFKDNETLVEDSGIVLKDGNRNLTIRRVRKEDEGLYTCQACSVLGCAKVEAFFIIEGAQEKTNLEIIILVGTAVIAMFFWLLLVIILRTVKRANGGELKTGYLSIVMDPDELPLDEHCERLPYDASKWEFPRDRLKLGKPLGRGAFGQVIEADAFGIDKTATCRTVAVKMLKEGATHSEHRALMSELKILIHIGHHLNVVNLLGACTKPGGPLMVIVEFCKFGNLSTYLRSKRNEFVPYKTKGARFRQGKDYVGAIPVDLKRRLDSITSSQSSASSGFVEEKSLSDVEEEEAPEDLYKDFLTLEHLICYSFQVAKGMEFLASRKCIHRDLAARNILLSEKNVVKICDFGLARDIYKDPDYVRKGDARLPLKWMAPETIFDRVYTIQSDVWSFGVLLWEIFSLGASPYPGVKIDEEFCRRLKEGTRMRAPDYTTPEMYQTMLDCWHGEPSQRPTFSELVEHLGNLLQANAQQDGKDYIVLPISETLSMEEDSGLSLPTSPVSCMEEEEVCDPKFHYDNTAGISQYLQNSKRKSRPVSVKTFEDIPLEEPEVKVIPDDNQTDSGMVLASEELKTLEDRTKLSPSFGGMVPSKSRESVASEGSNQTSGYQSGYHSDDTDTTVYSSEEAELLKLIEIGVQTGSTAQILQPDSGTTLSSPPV
# Procedure, shortened: as §1
# LIMK1 = LIMK1 (Homo sapiens, UniProt P53667)
# Sequence of LIMK1 (P53667 whole entry): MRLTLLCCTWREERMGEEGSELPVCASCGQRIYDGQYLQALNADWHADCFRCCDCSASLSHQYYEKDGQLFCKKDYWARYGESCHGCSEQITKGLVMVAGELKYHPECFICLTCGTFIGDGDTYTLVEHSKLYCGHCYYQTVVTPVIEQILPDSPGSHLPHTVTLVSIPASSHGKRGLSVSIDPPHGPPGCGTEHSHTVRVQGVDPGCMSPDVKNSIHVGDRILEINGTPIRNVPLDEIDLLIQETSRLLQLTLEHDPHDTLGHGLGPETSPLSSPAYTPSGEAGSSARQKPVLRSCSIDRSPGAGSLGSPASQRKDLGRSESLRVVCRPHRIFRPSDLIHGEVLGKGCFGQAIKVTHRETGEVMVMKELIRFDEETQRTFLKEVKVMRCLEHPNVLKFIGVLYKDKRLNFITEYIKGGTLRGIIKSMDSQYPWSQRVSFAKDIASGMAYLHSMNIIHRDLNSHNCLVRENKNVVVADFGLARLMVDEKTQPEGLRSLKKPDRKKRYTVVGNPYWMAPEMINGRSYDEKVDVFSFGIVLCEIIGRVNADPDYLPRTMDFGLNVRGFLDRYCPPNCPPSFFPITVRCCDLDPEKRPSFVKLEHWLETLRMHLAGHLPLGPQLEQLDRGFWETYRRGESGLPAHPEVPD
# Procedure, shortened: as §1
# LYN = LYN (Homo sapiens, UniProt P07948)
# Sequence of LYN (P07948 whole entry): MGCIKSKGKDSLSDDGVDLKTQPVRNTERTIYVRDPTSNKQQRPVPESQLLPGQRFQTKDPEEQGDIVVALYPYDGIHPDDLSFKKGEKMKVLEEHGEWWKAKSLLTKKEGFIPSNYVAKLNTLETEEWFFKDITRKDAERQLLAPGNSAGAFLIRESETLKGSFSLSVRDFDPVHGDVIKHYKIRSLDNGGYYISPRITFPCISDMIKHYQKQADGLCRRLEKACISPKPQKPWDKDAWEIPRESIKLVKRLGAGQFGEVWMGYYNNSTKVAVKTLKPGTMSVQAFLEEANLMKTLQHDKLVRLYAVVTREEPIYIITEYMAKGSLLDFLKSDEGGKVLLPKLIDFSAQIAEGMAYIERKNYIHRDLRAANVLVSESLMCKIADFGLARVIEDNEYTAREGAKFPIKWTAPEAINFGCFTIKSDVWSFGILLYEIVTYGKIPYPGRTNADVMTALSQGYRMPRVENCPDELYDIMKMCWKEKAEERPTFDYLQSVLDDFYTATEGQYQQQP
# Procedure, shortened: as §1
# p38 γ = target: T2, p38 γ (Homo sapiens, UniProt P53778)
# T2 construct: gene MAPK12
# T2 sequence (P53778 1-367): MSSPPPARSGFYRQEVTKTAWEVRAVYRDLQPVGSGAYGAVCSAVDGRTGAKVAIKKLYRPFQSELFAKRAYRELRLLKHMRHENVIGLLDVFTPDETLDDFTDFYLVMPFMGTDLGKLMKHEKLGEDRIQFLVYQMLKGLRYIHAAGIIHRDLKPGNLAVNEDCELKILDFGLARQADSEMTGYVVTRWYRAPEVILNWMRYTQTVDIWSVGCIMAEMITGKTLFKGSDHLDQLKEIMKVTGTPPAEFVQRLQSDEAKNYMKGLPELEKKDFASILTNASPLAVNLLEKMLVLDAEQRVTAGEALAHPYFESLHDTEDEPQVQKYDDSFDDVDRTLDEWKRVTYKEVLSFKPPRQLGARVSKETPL
# Procedure, shortened: as §1
# [1] = read-out: Kinome Profiling performed by Eurofins DiscoverX / AM-1882, 1.0 µM / POC
# [2] = read-out: Kinome Profiling performed by Eurofins DiscoverX / AM-0277, 1.0 µM / POC
# [3] = read-out: Kinome Profiling performed by Eurofins DiscoverX / AM-5308, 1.0 µM / POC
# Sequence of OXSR1 (O95747 whole entry): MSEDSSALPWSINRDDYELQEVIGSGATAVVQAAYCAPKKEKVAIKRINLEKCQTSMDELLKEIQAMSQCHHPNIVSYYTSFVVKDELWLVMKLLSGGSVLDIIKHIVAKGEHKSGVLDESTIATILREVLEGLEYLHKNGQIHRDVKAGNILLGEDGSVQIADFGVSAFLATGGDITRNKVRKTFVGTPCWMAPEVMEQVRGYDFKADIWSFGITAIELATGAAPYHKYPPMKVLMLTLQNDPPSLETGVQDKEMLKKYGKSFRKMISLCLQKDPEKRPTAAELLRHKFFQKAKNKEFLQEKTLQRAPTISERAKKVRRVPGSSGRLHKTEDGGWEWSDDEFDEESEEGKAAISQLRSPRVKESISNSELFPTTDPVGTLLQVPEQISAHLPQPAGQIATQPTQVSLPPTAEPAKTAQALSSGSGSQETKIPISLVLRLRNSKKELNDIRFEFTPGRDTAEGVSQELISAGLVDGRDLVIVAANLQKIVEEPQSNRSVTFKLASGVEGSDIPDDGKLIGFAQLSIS
smiles,measurement,setting,value
CC(C)(C)NS(=O)(=O)c1cccc(NC(=O)c2ccc(S(=O)(=O)NC(C)(C)C)cc2N2CCC3(CC2)CC3)c1 [AM-1882],remaining activity at 1 µM,OXSR1; [1],92.5%
same,remaining activity at 1 µM,MAP4K4; [1],95%
same,remaining activity at 1 µM,Aurora 2; [1],100%
same,remaining activity at 1 µM,KDR; [1],80.5%
same,remaining activity at 1 µM,LIMK1; [1],87%
same,remaining activity at 1 µM,LYN; [1],99.5%
same,remaining activity at 1 µM,p38 γ; [1],100%
CC(C)(CO)Nc1ccc(C(=O)Nc2cccc(S(=O)(=O)C3CCCC3)c2)c(N2CCC3(CC2)CC3)n1 [AM-0277],remaining activity at 1 µM,OXSR1; [2],100%
same,remaining activity at 1 µM,MAP4K4; [2],100%
same,remaining activity at 1 µM,Aurora 2; [2],100%
same,remaining activity at 1 µM,KDR; [2],90%
same,remaining activity at 1 µM,LIMK1; [2],95%
same,remaining activity at 1 µM,LYN; [2],100%
same,remaining activity at 1 µM,p38 γ; [2],100%
C[C@@H]1CN(c2cccc(NC(=O)c3ccc(NS(=O)(=O)CCO)cc3N3CCC4(CC3)CC4)n2)CCO1 [AM-5308],remaining activity at 1 µM,OXSR1; [3],82.5%
same,remaining activity at 1 µM,MAP4K4; [3],75%
same,remaining activity at 1 µM,Aurora 2; [3],100%
same,remaining activity at 1 µM,KDR; [3],53%
same,remaining activity at 1 µM,LIMK1; [3],92.5%
same,remaining activity at 1 µM,LYN; [3],86.5%
same,remaining activity at 1 µM,p38 γ; [3],76.5%
